Assay results reported in ChEMBL document CHEMBL1201862, “PubChem BioAssay data set” (2004).
Calls of active or inactive are those of the source. Cut-off read from the data, not from the text of the source, for most assays here: actives have a measured EC50 and inactives only a lower limit.

Tests used:
[1] = microbe, parasite or virus in culture; format: functional; details: Mycobacterium tuberculosis
[2] = NIH-3T3 fibroblast cytotoxicity, dose response, cytotoxicity control, cell-based, fluorescence, Alamar Blue, secondary assay (AID 2327); format: functional;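 note: NIH-3T3 mouse fibroblasts cultured with fluconazole at 8 µg/mL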
[3] = Trypanosoma cruzi growth suppression in host cells – NIH3T3 host cells, beta-gal luminescence, confirmation (AID 2044); format: functional, cell-based;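 note: intracellular parasites grown in NIH/3T3 mouse fibroblasts as host cells; luminescent beta-galactosidase reporter signal from transgenic T. cruzi replicating inside host cells; inhibitors lower the luminescence signal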
[4] = fluconazole-exposed Candida albicans growth modulators – fluorescence, retest, confirmation (AID 2467); format: functional, cell-based
[5] = NIH3T3 cell viability loss – ATP luminescence, mouse fibroblasts, counter-screen, dose response (AID 2010); format: functional, cell-based;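 note: cells exposed to compound for about 90 hours before reading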
Streptococcus = assay: GAS UMAA2166 growth inhibition – luminescence, BacTiterGlo, counter-screen for streptokinase expression inhibitor project, dose response (AID 1915); format: functional, organism-based;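 note: potency for reduction of bacterial viability or growth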
cells [6] = format: functional, cell-based
cells [7] = format: functional, cell-based; remark: listed apart in the source
[8] = test system: Streptococcus sp. 'group A'; assay: Streptococcus pyogenes SK(-)GAS viability under kanamycin – luminescence, BacTiterGlo, confirmation, counter-screen for streptokinase expression inhibitor project, dose response (AID 1900); format: functional, organism-based
[9] = Luminescence Cell-Based Dose Confirmation HTS to Identify Activators of 5'UTR Stem-Loop Driven Alpha-Synuclein mRNA Translation in H4 Neuroglioblastoma Cells. [Related pubchem assays: 1829 (Project Summary), 1814 (Primary HTS)]; format: functional
[10] = Luminescence Cell-Based Dose Response HTS to Identify Activators of Luciferase Translation or Activity in H4 […] Cells. [Related pubchem assays: 1829 (Project Summary), 1814 (Primary HTS)]; format: functional
H4 = assay: Luminescence Cell-Based Dose Response HTS to Identify Activators of 5'UTR Stem-Loop Driven Prion Protein mRNA Translation in H4 Neuroglioblastoma Cells. [Related pubchem assays: 1829 (Project Summary), 1814 (Primary HTS)]; format: functional; details: Homo sapiens
[11] = target: T1, Calpain-2 catalytic subunit (Sus scrofa, UniProt P43367); assay: m-calpain protease blockers, concentration series – biochemical, fluorogenic peptide substrate, dose response (AID 1420); format: functional
T1 sequence (P43367 whole entry): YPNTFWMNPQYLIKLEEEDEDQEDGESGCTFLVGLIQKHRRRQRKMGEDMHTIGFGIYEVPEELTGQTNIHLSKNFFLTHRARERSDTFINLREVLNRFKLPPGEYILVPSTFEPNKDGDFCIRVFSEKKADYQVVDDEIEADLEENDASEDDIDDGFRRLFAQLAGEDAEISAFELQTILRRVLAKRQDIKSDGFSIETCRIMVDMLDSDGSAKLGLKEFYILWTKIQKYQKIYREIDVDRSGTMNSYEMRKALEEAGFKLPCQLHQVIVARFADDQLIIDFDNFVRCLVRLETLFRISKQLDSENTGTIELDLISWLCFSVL

Streptokinase A = target: T2, Streptokinase A (Streptococcus pyogenes serotype M1, UniProt P10520); assay: viability-normalized secreted streptokinase activity reduction – plasminogen activation absorbance, OD405, dose response (AID 1914); format: functional, Streptococcus pyogenes M1 GAS;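 note: secreted streptokinase activity via plasminogen activation per viability signal from cell pellet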
T2 sequence (P10520 whole entry): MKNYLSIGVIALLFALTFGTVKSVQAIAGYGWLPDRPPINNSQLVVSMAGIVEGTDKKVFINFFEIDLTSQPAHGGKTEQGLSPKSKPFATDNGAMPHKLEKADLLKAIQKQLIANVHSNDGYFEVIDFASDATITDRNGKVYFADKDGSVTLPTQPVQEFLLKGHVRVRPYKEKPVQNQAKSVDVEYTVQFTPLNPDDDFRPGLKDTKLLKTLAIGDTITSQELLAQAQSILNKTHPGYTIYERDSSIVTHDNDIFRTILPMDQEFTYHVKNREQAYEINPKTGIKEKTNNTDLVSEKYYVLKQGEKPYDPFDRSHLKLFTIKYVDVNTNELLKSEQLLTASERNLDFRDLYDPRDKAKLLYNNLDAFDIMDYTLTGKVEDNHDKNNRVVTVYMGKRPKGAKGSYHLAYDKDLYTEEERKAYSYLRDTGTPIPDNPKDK

Protein RecA = target: T3, Protein RecA (Mycobacterium tuberculosis, UniProt P9WHJ3); assay: Fluorescence Cell-Free Homogeneous Dose Retest to Identify Inhibitors of RecA-Intein Splicing Activity. [Related pubchem assays (depositor defined):AID2097, AID2223, AID489010, AID492950]; format: functional
T3 sequence (P9WHJ3 whole entry): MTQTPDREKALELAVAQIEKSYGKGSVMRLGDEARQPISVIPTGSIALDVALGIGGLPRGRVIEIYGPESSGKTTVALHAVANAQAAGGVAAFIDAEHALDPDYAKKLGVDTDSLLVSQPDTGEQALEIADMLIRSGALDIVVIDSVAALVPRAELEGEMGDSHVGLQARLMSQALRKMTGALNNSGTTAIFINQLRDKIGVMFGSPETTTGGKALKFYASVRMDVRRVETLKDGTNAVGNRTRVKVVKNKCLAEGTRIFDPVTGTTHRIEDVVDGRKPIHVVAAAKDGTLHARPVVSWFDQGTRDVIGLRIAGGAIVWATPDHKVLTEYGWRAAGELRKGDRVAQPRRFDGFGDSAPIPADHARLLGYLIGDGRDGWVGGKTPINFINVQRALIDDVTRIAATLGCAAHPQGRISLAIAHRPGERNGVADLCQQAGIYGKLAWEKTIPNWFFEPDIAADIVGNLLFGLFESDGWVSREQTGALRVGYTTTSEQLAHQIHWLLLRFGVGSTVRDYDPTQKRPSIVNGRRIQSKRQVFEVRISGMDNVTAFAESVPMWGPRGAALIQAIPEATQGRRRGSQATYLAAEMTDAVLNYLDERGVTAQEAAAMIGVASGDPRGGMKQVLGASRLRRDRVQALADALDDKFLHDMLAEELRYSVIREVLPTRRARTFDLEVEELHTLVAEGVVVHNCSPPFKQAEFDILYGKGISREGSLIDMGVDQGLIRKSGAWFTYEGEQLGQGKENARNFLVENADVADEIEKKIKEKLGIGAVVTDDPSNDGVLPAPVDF

[12] = target: T4, Replicative DNA helicase DnaB (Mycobacterium tuberculosis, UniProt P9WMR3); assay: DnaB intein splicing inhibitors, dose response, biochemical, cell-free fluorescence (AID 449749); format: functional
T4 sequence (P9WMR3 whole entry): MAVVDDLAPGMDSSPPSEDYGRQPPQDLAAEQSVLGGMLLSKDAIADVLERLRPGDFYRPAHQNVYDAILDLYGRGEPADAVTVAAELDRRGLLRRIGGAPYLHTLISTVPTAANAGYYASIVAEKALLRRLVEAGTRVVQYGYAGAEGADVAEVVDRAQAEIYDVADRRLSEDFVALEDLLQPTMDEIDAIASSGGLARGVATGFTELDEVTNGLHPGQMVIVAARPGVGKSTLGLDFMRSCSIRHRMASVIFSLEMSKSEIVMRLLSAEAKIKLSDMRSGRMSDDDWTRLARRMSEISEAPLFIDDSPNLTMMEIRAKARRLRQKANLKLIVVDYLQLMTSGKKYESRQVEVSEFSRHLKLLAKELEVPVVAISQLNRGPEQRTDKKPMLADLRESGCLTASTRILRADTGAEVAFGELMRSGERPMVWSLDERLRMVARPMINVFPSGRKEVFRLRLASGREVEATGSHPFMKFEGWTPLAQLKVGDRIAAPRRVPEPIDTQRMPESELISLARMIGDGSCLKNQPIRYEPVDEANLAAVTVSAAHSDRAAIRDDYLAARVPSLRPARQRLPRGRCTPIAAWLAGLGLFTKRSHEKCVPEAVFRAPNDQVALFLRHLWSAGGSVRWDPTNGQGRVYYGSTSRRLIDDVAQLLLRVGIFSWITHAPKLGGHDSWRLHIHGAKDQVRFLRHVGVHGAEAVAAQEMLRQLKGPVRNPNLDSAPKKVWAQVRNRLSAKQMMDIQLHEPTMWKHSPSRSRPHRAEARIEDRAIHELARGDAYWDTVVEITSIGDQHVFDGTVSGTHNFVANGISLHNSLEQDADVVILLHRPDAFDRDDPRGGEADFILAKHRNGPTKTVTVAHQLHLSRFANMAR

INS1 = assay: INS-1E survival protection against cytokine death – cell-based, luminescence, retest, dose response (AID 449756); format: functional; details: Rattus norvegicus;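 note: cell death triggered by IL-1 beta plus TNF-alpha plus IFN-gamma mixture; protective hits raise ATP signal compared with cytokine alone wells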

CCc1ccc2oc(-c3ccc(OC)cc3)cc(=Nc3c(C)n(C)n(-c4ccccc4)c3=O)c2c1
CC50 [1]: 27.6 µM (active) | EC50 [2]: > 160 µM (inactive) | EC50 [3]: 1.94 µM (active) | EC50 [4]: > 38 µM (not active) | EC50 [5]: > 60 µM (not active)

O=C(Nc1nc(-c2ccccn2)cs1)c1ccc(S(=O)(=O)N2CCCCC2)cc1
EC50 (Streptococcus): 2.56 µM (active) | EC50 (cells [6]): 13.4 µM (active) | EC50 (cells [7]): > 350 µM (not active) | EC50 [8]: 0.879 µM (active)

O=C(c1cccc(C(F)(F)F)c1)C1CCCN(C(=O)Cn2cncn2)C1 (stereo unspecified)
EC50 (cells [6]): > 350 µM (not active) | EC50 (cells [7]): > 350 µM (not active)

O=C(NCCCC1CCCC1)C1CCC(=O)N(Cc2cccc(F)c2)C1 (stereo unspecified)
EC50 [9]: > 120 µM (not active) | EC50 [10]: > 120 µM (not active) | EC50 (H4): > 120 µM (not active)

Cn1c(CO)nc2c3ccccc3ccc21
EC50 (cells [6]): > 350 µM (not active) | EC50 (cells [7]): > 350 µM (not active)

Cc1ccc(S(=O)(=O)N(C)CC(=O)NCCCn2ccnc2)cc1
EC50 (cells [6]): > 350 µM (not active) | EC50 (cells [7]): > 350 µM (not active)

CC(=O)N1CCOc2ccc(S(=O)(=O)N3CCCCC3)cc21
EC50 [9]: > 120 µM (not active) | EC50 [10]: > 120 µM (not active) | EC50 (H4): > 120 µM (not active)

CC(C)C[C@H](NC(=O)c1[nH]cnc1C(=O)N[C@H](C)c1ccccc1)C(=O)OC(C)(C)C
EC50 (Streptococcus): 9.3 µM (active) | IC50 [11]: 11.7 µM (not active) | EC50 (Streptokinase A): > 150 µM (not active) | EC50 [8]: 3.86 µM (active)

CCOC(=O)c1ccccc1NC(=O)COc1coc(CN2CCc3ccccc32)cc1=O
CC50 [1]: > 40 µM (active)

CN(Cc1cccs1)C(=O)CSc1nc(N)cc(N)n1
EC50 (cells [6]): > 350 µM (not active) | EC50 (cells [7]): > 350 µM (not active)

COc1ccc(N2/C(=N/C(=O)CCC3CCCC3)SC3CS(=O)(=O)CC32)cc1 (stereo unspecified)
EC50 (cells [6]): > 350 µM (not active) | EC50 (cells [7]): > 350 µM (not active)

CCOC(=O)c1c(NC(=O)CCl)sc(CN(C)C)c1-c1ccccc1
CC50 [1]: 12.5 µM (active) | EC50 (Protein RecA): 7.5 µM (active) | AC50 [12]: 20.4 µM (active)

CCOC(=O)/C(=N/Nc1ccc(OC)cc1)N1CCCc2ccccc21
CC50 [1]: > 40 µM (active)

CN(C)c1ccc(/C=N/NC(=S)NCc2ccco2)cc1
EC50 [9]: 15.3 µM (active) | EC50 [10]: 8.41 µM (active) | EC50 (H4): > 120 µM (not active)

CSc1ccccc1N=C(S)NCc1ccc(Cl)cc1
EC50 [9]: 4.54 µM (active) | EC50 [10]: 5.76 µM (active) | EC50 (H4): 9.9 µM (active)

COc1ccc(NC(=O)CSc2nc(O)c3c(n2)CCC3)cc1OC
EC50 (cells [6]): > 350 µM (not active) | EC50 (cells [7]): > 350 µM (not active)

O=C(Cn1c(Cc2ccccc2)nc2ccccc21)NCc1ccc2c(c1)OCO2
EC50 (cells [6]): > 350 µM (not active) | EC50 (cells [7]): > 350 µM (not active)

O=C(c1ccc(OC2CCN(CCc3ccccc3)CC2)cc1)N1CCCC(CCCO)C1 (stereo unspecified)
EC50 (cells [6]): > 350 µM (not active) | EC50 (cells [7]): > 350 µM (not active)

CCc1ccc(NC(=S)/N=C(\N)Nc2nc(C)c3cc(CC)ccc3n2)cc1
CC50 [1]: 17.4 µM (active)

O=C(O)C1CC=CCC1C(=O)N1CCN(c2nc(-c3ccccc3Cl)c3cc(Br)ccc3n2)CC1 (stereo unspecified)
CC50 [1]: 38.3 µM (active)

Cc1cccc(N2CCN(CCCNC(=O)c3ccc(NC(=O)C4=CSCCO4)cc3)CC2C)c1 (stereo unspecified)
CC50 [1]: > 40 µM (active)

N#C/C(=C(/O)c1ccc(F)cc1)c1nc2ccccc2s1
EC50 (cells [6]): > 350 µM (not active) | EC50 (cells [7]): 7.41 µM (active)

Cc1ccc(-c2nc3nc4ccccc4nc3n2Cc2ccco2)cc1
EC50 [9]: 21.9 µM (active) | EC50 [10]: 13.2 µM (active)

CCOc1ccc(/C=N/Nc2ccc(Cl)nn2)c(O)c1
CC50 [1]: 18.4 µM (active) | AC50 (INS1): 1.77 µM (active)

CNC(=O)C1CCN(S(=O)(=O)c2c(C)noc2/C=C/c2ccccc2F)CC1
EC50 [9]: 21.8 µM (active) | EC50 [10]: 12.8 µM (active) | EC50 (H4): > 120 µM (not active)

Cc1ccc(NC2=NC(=O)c3cccc([N+](=O)[O-])c32)cc1
EC50 [9]: 77.8 µM (active) | EC50 [10]: 26.7 µM (active) | EC50 (H4): 26.8 µM (active)
